This note sets out measurements from PMC5487681, “Identification of Antifungal H^+-ATPase Inhibitors with Effect on Plasma Membrane Potential” (Antimicrobial Agents and Chemotherapy, 2017).

The target of one assay is T1, Na^+,K^+-ATPase (Sus scrofa, UniProt P05024).
T1 construct: from tissue; host or cells: porcine kidney (gift of Natalya Fedosova, Aarhus University)
Nature of the assay: ATP hydrolysis assay, Na+,K+-ATPase. Type of assay: biochemical, porcine. The procedure: Rabbit sarcoplasmic reticulum membranes containing sarcoplasmic endoplasmic reticulum Ca^2+-ATPase (SERCA) were kindly provided by Claus E. Olesen and Jesper V. Møller, Aarhus University, and prepared as described in reference. Porcine kidney Na^+,K^+-ATPase was kindly provided by Natalya Fedosova, Aarhus University, and prepared as described in reference.
The protein activity levels were determined by measuring the amount of free phosphate produced from the ATP hydrolysis reaction. The assay was performed as described in reference. Each well contained ATPase enzyme, 2 μl of inhibitor (usually in the range of 333 to 0.01 μM) dissolved in dimethyl sulfoxide (DMSO) (Duchefa Biochemie, Haarlem, The Netherlands), and an assay buffer dependent on the enzyme for a final volume of 60 μl. Possible compound precipitation in the assay buffer was monitored using a Nephelostar plate reader measuring turbidity, and the information was taken into account in the IC50 determination. Pma1 assay buffer consisted of 20 mM 3-(N-morpholino)propanesulfonic acid (MOPS)–NaOH, pH 6.5 or 7.0, 8 mM MgSO4, 50 mM KNO3 (a vacuolar ATPase inhibitor), 25 mM sodium azide (a mitochondrial ATPase inhibitor), and 250 μM sodium molybdate (an acid phosphatase inhibitor). SERCA buffer consisted of 9 mM MOPS-NaOH, pH 7, 2.7 mM MgCl2, 90 μM CaCl2, and 72 mM KCl. Na^+,K^+-ATPase buffer consisted of 30 mM MOPS-NaOH, pH 7, 40 mM NaCl, 4 mM MgCl2, and 20 mM KCl. The concentration of protein was adjusted to obtain a signal of the optical density at 860 nm (OD860) of between 0.5 and 1.0 in the untreated samples (for all Pma1 batches, ∼1 to 2 μg/well; for SERCA and Na^+,K^+-ATPase, ∼0.1 to 0.2 μg/well).

The subject of the next assay is Candida tropicalis Ct016. In words: microbe, parasite or virus in culture. As to conditions: for MIC: Candida tropicalis. The procedure:
(§1) The following fungal isolates were used: Saccharomyces cerevisiae ATCC 9763, Candida albicans SC5314, Candida parapsilosis ATCC 22019, Candida tropicalis Ct016, Candida glabrata ATCC 90030, Aspergillus fumigatus ATCC 13073, and Aspergillus flavus ATCC MYA-1005. Frozen stocks of yeast isolates in glycerol (final concentration, 20%) were prepared by growing the cells to log phase in YPD medium at 30°C and 150 rpm. Frozen stocks of mold spores were prepared by harvesting spores from 7-day-old potato glucose agar plates in phosphate-buffered saline, 0.1% Tween 80 and aliquoting these spores in the presence of glycerol (final concentration, 20%). The cells were stored at −80°C. The cells or spores were thawed and diluted to a final concentration of 0.5 × 10^5 to 2.5 × 10^5 CFU/ml in sterile Milli-Q H2O. […] The plate was incubated for 20 to 24 h at 34°C (72 h for molds), and the OD490 was measured on a Victor X5 (PerkinElmer) plate reader. Mold growth assay plates were also visually inspected. The MIC was defined as the lowest concentration inhibiting the visual growth of the microorganism.

Assay [1] has as its system Aspergillus fumigatus ATCC 13073. Nature of the assay: microbe, parasite or virus in culture. As to conditions: for MIC: Aspergillus fumigatus. The method, then: as §1
Assay [2] concerns Candida parapsilosis ATCC 22019. In words: microbe, parasite or virus in culture. Particulars: for MIC: Lodderomyces parapsilosis. The procedure:
as §1

Another assay has as its system Candida albicans SC5314. Nature of the assay: microbe, parasite or virus in culture. As to conditions: for MIC: Candida albicans. The method, then: as §1
For assay [3], the system named is Candida glabrata ATCC 90030. In words: microbe, parasite or virus in culture. Particulars: for MIC: Nakaseomyces glabratus. The method, then: as §1
The mark [4] stands for this setting: Table 2, pH 7, n = 2, porcine kidney, read-out: IC50 for ATP hydrolysis, Na^+,K^+-ATPase.
[5] abbreviates: CT016, read-out: MIC for growth inhibition, C. tropicalis.
Where [6] appears, read: ATCC13073, read-out: MIC for growth inhibition, A. fumigatus.
Setting [7] is: ATCC22019, read-out: MIC for growth inhibition, C. parapsilosis.
Where [8] appears, read: SC5314, read-out: MIC for growth inhibition, C. albicans.
[9] abbreviates: ATCC90030, read-out: MIC for growth inhibition, C. glabrata.
Setting [10] is: Table 1, ATP hydrolysis at pH 7, read-out: IC50 Na^+,K^+-ATPase.
Setting [11] is: CT016, pH 7, read-out: MIC C. tropicalis.
Setting [12] is: ATCC13073, 72 h, pH 7, read-out: MIC A. fumigatus.
Where [13] appears, read: ATCC22019, pH 7, read-out: MIC C. parapsilosis.
Where [14] appears, read: SC5314, pH 7, read-out: MIC C. albicans.
The mark [15] stands for this setting: ATCC90030, pH 7, read-out: MIC C. glabrata.
The mark [16] stands for this setting: Table 1, ATP hydrolysis at pH 7.4 (compounds marked b), read-out: IC50 Na^+,K^+-ATPase.
[17] abbreviates: SC5314, read-out: Growth inhibition MIC, C. albicans in RPMI.

In brackets after ≈: the same amount, converted by molar mass. Read-outs that look alike come from different tables or passages of the source.

As to `O=c1c2ccccc2[se]n1-c1ccccc1` [Ebselen, reference compound], the IC50 on Na^+,K^+-ATPase (setting [4]) came to 0.16 ± 0.01 µM. The MIC came to 11 µM (≈ 3.02 µg/mL) with Candida tropicalis Ct016 (setting [5]); 24 µM (≈ 6.58 µg/mL) in assay [1] (setting [6]); 24 µM (≈ 6.58 µg/mL) in assay [2] (setting [7]); 7.5 µM (≈ 2.06 µg/mL) in the assay on Candida albicans SC5314 (setting [8]); 7.5 µM (≈ 2.06 µg/mL) in assay [3] (setting [9]).
For `CCCCOc1ccc(C2C(C#N)=C(N)Oc3cc(O)ccc32)cc1` (stereo not shown) [Compound 11], the IC50 at Na^+,K^+-ATPase (setting [10]) amounted to 30.3 ± 2.4 µM. For the same compound, the MIC (with Candida tropicalis Ct016 (setting [11]); in assay [1] (setting [12]); in assay [2] (setting [13]); in the assay on Candida albicans SC5314 (setting [14]); in assay [3] (setting [15])) was above 150 µM each time.
For `O=C1/C(=C/c2ccc(-c3cc(Cl)ccc3Cl)o2)C=C(c2ccccc2)N1c1ccccc1O` [Compound 1], the IC50 at Na^+,K^+-ATPase (setting [16]) was determined as 13.2 ± 0.91 µM. In addition, the MIC (in the assay on Candida tropicalis Ct016 (setting [11]); in assay [1] (setting [12]); in assay [2] (setting [13]); in the assay on Candida albicans SC5314 (setting [14]); in assay [3] (setting [15])) was above 150 µM each time.
For `CCCCc1nc2sc3c(NCCCN(C)C)nc(SC)nc3c2c2c1CCC2` [Compound 15], at Na^+,K^+-ATPase (setting [4]), the IC50 was determined as 4.1 ± 0.6 µM. Besides, the MIC with Candida tropicalis Ct016 (setting [5]) is 47 µM (≈ 20.2 µg/mL); in assay [1] (setting [6]), 15 µM (≈ 6.44 µg/mL); in assay [2] (setting [7]), 15 µM (≈ 6.44 µg/mL); in the assay on Candida albicans SC5314 (setting [17]), 4.8 µM (≈ 2.06 µg/mL); in the assay on Candida albicans SC5314 (setting [8]), 4.8 µM (≈ 2.06 µg/mL); in assay [3] (setting [9]), 15 µM (≈ 6.44 µg/mL).
As for `COc1ccc(-c2cc(C(=O)Nc3ccc4c(c3)OCCO4)c3ccccc3n2)c(OC)c1` [Compound 8], the 50% inhibitory concentration (IC50) on Na^+,K^+-ATPase (setting [10]) was above 105 µM. Also, the MIC (with Candida tropicalis Ct016 (setting [11]); in assay [1] (setting [12]); in assay [2] (setting [13]); in the assay on Candida albicans SC5314 (setting [14]); in assay [3] (setting [15])) was above 38 µM throughout.
Take `COc1ccc(Cn2c(SCc3cc(C)ccc3C)nc3cc(OC)c(OC)cc3c2=N)cc1` [Compound 12]: the 50% inhibitory concentration (IC50) at Na^+,K^+-ATPase (setting [10]) was 58.7 ± 40.2 µM. The MIC with Candida tropicalis Ct016 (setting [11]) is above 150 µM; in assay [1] (setting [12]), above 150 µM; in assay [2] (setting [13]), above 150 µM; in the assay with Candida albicans SC5314 (setting [14]), 12 µM (≈ 5.71 µg/mL); in assay [3] (setting [15]) it was above 150 µM.
Take `Cc1c(-c2ccccc2)[o+]c2ccccc2c1C#Cc1ccccc1` [Compound 6]: the IC50 at Na^+,K^+-ATPase (setting [16]) is 3.5 ± 3.7 µM. The MIC (in the assay on Candida tropicalis Ct016 (setting [11]); in assay [1] (setting [12]); in assay [2] (setting [13]); with Candida albicans SC5314 (setting [14]); in assay [3] (setting [15])) was above 150 µM in each case.
On to `CCN(CC)CCCNc1nc(SC)nc2c1sc1nc(-c3ccccc3)c3c(c12)CCC3` [Compound 19], for which the IC50 on Na^+,K^+-ATPase (setting [4]) is 5.5 ± 1.8 µM. For the same compound, the MIC with Candida tropicalis Ct016 (setting [5]) was 3.7 µM (≈ 1.77 µg/mL); in assay [1] (setting [6]), 12 µM (≈ 5.73 µg/mL); in assay [2] (setting [7]), 3.7 µM (≈ 1.77 µg/mL); in the assay on Candida albicans SC5314 (setting [17]), 7 µM (≈ 3.34 µg/mL); with Candida albicans SC5314 (setting [8]), 6 µM (≈ 2.87 µg/mL); in assay [3] (setting [9]) it was 3.7 µM (≈ 1.77 µg/mL).
On to `CCc1nc2sc3c(NCCCN(C)C)ncnc3c2c2c1CCCC2` [Compound 17], for which the IC50 at Na^+,K^+-ATPase (setting [4]) was above 333 µM. Moreover, the MIC in the assay on Candida tropicalis Ct016 (setting [5]) was 150 µM (≈ 55.4 µg/mL); in assay [1] (setting [6]), above 150 µM; in assay [2] (setting [7]), 150 µM (≈ 55.4 µg/mL); in the assay on Candida albicans SC5314 (setting [17]) it was 150 µM (≈ 55.4 µg/mL); in the assay on Candida albicans SC5314 (setting [8]), 150 µM (≈ 55.4 µg/mL); in assay [3] (setting [9]) it was 150 µM (≈ 55.4 µg/mL).
Take `Oc1cccc(Nc2nc(-c3ccc(Cl)c(Cl)c3)cs2)c1` [Compound 7]: the IC50 on Na^+,K^+-ATPase (setting [16]) was 5.8 ± 0.8 µM. The MIC is 26 µM (≈ 8.77 µg/mL) in the assay with Candida tropicalis Ct016 (setting [11]); above 150 µM in assay [1] (setting [12]); 8.2 µM (≈ 2.77 µg/mL) in assay [2] (setting [13]); 7.3 µM (≈ 2.46 µg/mL) in the assay with Candida albicans SC5314 (setting [14]); 4.7 µM (≈ 1.58 µg/mL) in assay [3] (setting [15]).
In the case of `CN(C)CCCNc1ncnc2c1sc1nc(N3CCCCC3)c3c(c12)CCCC3` [Compound 16], at Na^+,K^+-ATPase (setting [4]), the IC50 came out at 9.1 ± 1 µM. Also, the MIC in the assay on Candida tropicalis Ct016 (setting [5]) is 28 µM (≈ 11.9 µg/mL); in assay [1] (setting [6]) it was 15 µM (≈ 6.37 µg/mL); in assay [2] (setting [7]), 15 µM (≈ 6.37 µg/mL); with Candida albicans SC5314 (setting [17]), 15 µM (≈ 6.37 µg/mL); with Candida albicans SC5314 (setting [8]), 15 µM (≈ 6.37 µg/mL); in assay [3] (setting [9]) it was 11 µM (≈ 4.67 µg/mL).
For `[O]=[V]([O-])([O-])[O-]` [Vanadate, reference compound], the IC50 on Na^+,K^+-ATPase (setting [4]) is 0.006 ± 0.001 µM. Further, in the assay on Candida tropicalis Ct016 (Table 3), the “MIC for growth inhibition, C. tropicalis” value is above 750 µM. In addition, the “MIC for growth inhibition, A. fumigatus” value in assay [1] (Table 3) was above 750 µM. The “MIC for growth inhibition, C. parapsilosis” value in assay [2] (Table 3) is above 750 µM. In the assay with Candida albicans SC5314 (Table 3), the “MIC for growth inhibition, C. albicans” value was above 750 µM. The “MIC for growth inhibition, C. glabrata” value in assay [3] (Table 3) was above 750 µM.
